Earlier results on five compounds are cited in patent US12551426B2, “Method for treating hair, comprising the application of a first agent (a) having a silane and a chromophoric compound, and a second agent (b) having a film-forming polymer” (Henkel AG & Co. KGaA, priority 2018, dated 2026).

The conditions of this series: 25° C.

Take `O=S(=O)([O-])c1ccc(N=Nc2c(O)ccc3ccccc23)cc1.[Na+]` [Acid Orange 7, sodium salt of 4-[(2-hydroxy-1-naphthyl)azo]benzene sulphonate]: the solubility in water result was “more than 7 g/L”.

Consider `Nc1cc(S(=O)(=O)[O-])cc2cc(S(=O)(=O)[O-])c(N=Nc3ccccc3)c(O)c12.[Na+].[Na+]` [Acid Red 33, diantrium salt of 5-amino-4-hydroxy-3-(phenylazo)-naphthalene-2,7-disulphonate], for which the solubility in water is 2.5 mg/mL.

Regarding `O=C([O-])c1c(Cl)c(Cl)c(Cl)c(Cl)c1-c1c2c(Br)cc(=O)c(Br)c-2oc2c(Br)c(O)cc(Br)c12.O=C([O-])c1c(Cl)c(Cl)c(Cl)c(Cl)c1-c1c2c(Br)cc(=O)c(Br)c-2oc2c(Br)c(O)cc(Br)c12.[Na+].[Na+]` [Acid Red 92, disodium salt of 3,4,5,6-tetrachloro-2-(1,4,5,8-tetrabromo-6-hydroxy-3-oxoxanthen-9-yl)benzoic acid], the solubility in water entry is “greater than 10 g/L”.

On to `O=C([O-])C1=NN(c2ccc(S(=O)(=O)[O-])cc2)C(=O)C1N=Nc1ccc(S(=O)(=O)[O-])cc1.[Na+].[Na+].[Na+]` (centres unmarked) [Acid Yellow 23, trisodium salt of 4,5-dihydro-5-oxo-1-(4-sulfophenyl)-4-((4-sulfophenyl)azo)-1H-pyrazole-3-carboxylic acid], for which the “solubility in water (in words)” value is on record as “highly soluble in water”.

Consider Acid Yellow 3, for which the solubility in water is 20 mg/mL.
